Source: patent US20250098679A1, “HERBICIDAL PYRIDONE DERIVATIVES” (SYNGENTA CROP PROTECTION AG, priority 2021, published 2025)

What was measured:
Format in all cases: in vivo
Conditions in all cases: evaluated after 13 days
[1] = tested on: Amaranthus palmeri (AMAPA); experiment: Pre-emergence Test, Amaranthus palmeri (AMAPA)
[2] = tested on: Zea mays (ZEAMX); experiment: Post-emergence Test, Zea mays (ZEAMX); set-up: key to percentage damage caused to the plant, ZEAMX (five-point scale): 5=81-100%, 4=61-80%, 3=41-60%, 2=21-40%, 1=0-20% damage
How it was run: (§1)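 Application was a spray of acetone/water (50:50) with 0.5% Tween 20 onto pots of test species sown in standard soil. Unless otherwise stated, the rate was 1000 g/ha. After 13 days under glasshouse conditions (24/16 °C, 65% humidity), injury was scored from 1 (0-20%) to 5 (81-100%).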

[3] = tested on: Amaranthus retoflexus (AMARE); experiment: Post-emergence Test, Amaranthus retoflexus (AMARE); set-up: key to percentage damage caused to the plant, AMARE (five-point scale): 5=81-100%, 4=61-80%, 3=41-60%, 2=21-40%, 1=0-20% damage
How it was run: as §1

[4] = tested on: Ipomoea hederacea (IPOHE); experiment: Pre-emergence Test, Ipomoea hederacea (IPOHE)
[5] = tested on: Ipomoea hederacea (IPOHE); experiment: Post-emergence Test, Ipomoea hederacea (IPOHE); set-up: key to percentage damage caused to the plant, IPOHE (five-point scale): 5=81-100%, 4=61-80%, 3=41-60%, 2=21-40%, 1=0-20% damage
How it was run: as §1

[6] = tested on: Echinochloa crus-galli (ECHCG); experiment: Post-emergence Test, Echinochloa crus-galli (ECHCG); set-up: key to percentage damage caused to the plant, ECHCG (five-point scale): 5=81-100%, 4=61-80%, 3=41-60%, 2=21-40%, 1=0-20% damage
How it was run: as §1

[7] = tested on: Amaranthus palmeri (AMAPA); experiment: Post-emergence Test, Amaranthus palmeri (AMAPA); set-up: key: 5=81-100%, 4=61-80%, 3=41-60%, 2=21-40%, 1=0-20% damage
How it was run: as §1

[8] = tested on: Setaria faberi (SETFA); experiment: Post-emergence Test, Setaria faberi (SETFA); set-up: key to percentage damage caused to the plant, SETFA (five-point scale): 5=81-100%, 4=61-80%, 3=41-60%, 2=21-40%, 1=0-20% damage
How it was run: as §1

[9] = tested on: Amaranthus retoflexus (AMARE); experiment: Pre-emergence Test, Amaranthus retoflexus (AMARE)
[10] = tested on: Zea mays (ZEAMX); experiment: Pre-emergence Test, Zea mays (ZEAMX)
[11] = tested on: Echinochloa crus-galli (ECHCG); experiment: Pre-emergence Test, Echinochloa crus-galli (ECHCG)
[12] = tested on: Setaria faberi (SETFA); experiment: Pre-emergence Test, Setaria faberi (SETFA)

Structure (SMILES) | Pre-emergence Test AMAPA, percentage damage caused to the plant (five-point scale) ([1]; 250 g/Ha (*)) | Pre-emergence Test AMAPA, percentage damage caused to the plant (five-point scale) ([1]; 1000 g/ha) | percentage damage caused to the plant, ZEAMX (five-point scale) ([2]; 250 g/Ha) | percentage damage caused to the plant, ZEAMX (five-point scale) ([2]; 1000 g/ha) | percentage damage caused to the plant, AMARE (five-point scale) ([3]; 250 g/Ha) | percentage damage caused to the plant, AMARE (five-point scale) ([3]; 1000 g/ha) | Pre-emergence Test IPOHE, percentage damage caused to the plant (five-point scale) ([4]; 250 g/Ha (*)) | Pre-emergence Test IPOHE, percentage damage caused to the plant (five-point scale) ([4]; 1000 g/ha) | percentage damage caused to the plant, IPOHE (five-point scale) ([5]; 250 g/Ha) | percentage damage caused to the plant, IPOHE (five-point scale) ([5]; 1000 g/ha) | percentage damage caused to the plant, ECHCG (five-point scale) ([6]; 250 g/Ha) | percentage damage caused to the plant, ECHCG (five-point scale) ([6]; 1000 g/ha) | percentage damage caused to the plant, AMAPA (five-point scale) ([7]; 250 g/Ha) | percentage damage caused to the plant, AMAPA (five-point scale) ([7]; 1000 g/ha) | percentage damage caused to the plant, SETFA (five-point scale) ([8]; 250 g/Ha) | percentage damage caused to the plant, SETFA (five-point scale) ([8]; 1000 g/ha) | Pre-emergence Test AMARE, percentage damage caused to the plant (five-point scale) ([9]; 250 g/Ha (*)) | Pre-emergence Test AMARE, percentage damage caused to the plant (five-point scale) ([9]; 1000 g/ha) | Pre-emergence Test ZEAMX, percentage damage caused to the plant (five-point scale) ([10]; 250 g/Ha (*)) | Pre-emergence Test ZEAMX, percentage damage caused to the plant (five-point scale) ([10]; 1000 g/ha) | further results
CCOC(=O)c1c(-c2ccc(Cl)c(Cl)c2)n(CC)c(Cn2ccc(C(F)(F)F)n2)cc1=O [Compound 1, ethyl 2-(3,4-dichlorophenyl)-1-ethyl-4-oxo-6-[[3-(trifluoromethyl)pyrazol-1-yl]methyl]pyridine-3-carboxylate] | 0 | 0 | 1 (1=0-20%) | 3 (3=41-60%) | 0 | 1 (1=0-20%) | 0 | 0 | 2 (2=21-40%) | 1 (1=0-20%) | 3 (3=41-60%) | 4 (4=61-80%) | 0 | 1 (1=0-20%) | 3 (3=41-60%) | 4 (4=61-80%) | 0 | 0 | 0 | 0 | Pre-emergence Test ECHCG, percentage damage caused to the plant (five-point scale) ([11]; 250 g/Ha (*)): 2 (2=21-40%); Pre-emergence Test ECHCG, percentage damage caused to the plant (five-point scale) ([11]; 1000 g/ha): 3 (3=41-60%); Pre-emergence Test SETFA, percentage damage caused to the plant (five-point scale) ([12]; 250 g/Ha (*)): 4 (4=61-80%); Pre-emergence Test SETFA, percentage damage caused to the plant (five-point scale) ([12]; 1000 g/ha): 4 (4=61-80%)
CCn1c(Cn2ccc(C(F)(F)F)n2)cc(=O)c(C(=O)O)c1-c1ccc(Cl)c(Cl)c1 [Compound 2, 2-(3,4-dichlorophenyl)-1-ethyl-4-oxo-6-[[3-(trifluoromethyl)pyrazol-1-yl]methyl]pyridine-3-carboxylic acid] | 0 | 3 (3=41-60%) | 4 (4=61-80%) | 4 (4=61-80%) | 3 (3=41-60%) | 4 (4=61-80%) | 4 (4=61-80%) | 3 (3=41-60%) | 3 (3=41-60%) | 4 (4=61-80%) | 4 (4=61-80%) | 4 (4=61-80%) | 3 (3=41-60%) | 4 (4=61-80%) | 4 (4=61-80%) | 5 (5=81-100%) | 1 (1=0-20%) | 3 (3=41-60%) | 4 (4=61-80%) | 4 (4=61-80%) | Pre-emergence Test ECHCG, percentage damage caused to the plant (five-point scale) ([11]; 250 g/Ha (*)): 5 (5=81-100%); Pre-emergence Test ECHCG, percentage damage caused to the plant (five-point scale) ([11]; 1000 g/ha): 5 (5=81-100%); Pre-emergence Test SETFA, percentage damage caused to the plant (five-point scale) ([12]; 250 g/Ha (*)): 5 (5=81-100%); Pre-emergence Test SETFA, percentage damage caused to the plant (five-point scale) ([12]; 1000 g/ha): 5 (5=81-100%)
